{"source": "paper PMC8956739", "about": "“A synthetic lipopeptide targeting top-priority multidrug-resistant Gram-negative pathogens” (Nature Communications, 2022)", "assay_type_in_all_cases": "cell-based, Acinetobacter baumannii", "key": {"A. baumannii FADDI-AB030": {"tested_on": "A. baumannii FADDI-AB030", "conditions": "FADDI-AB030", "how_it_was_run": "(§1)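 Broth microdilution, CaMHB; MIC read as the antibacterial endpoint against ATCC reference strains and clinical isolates.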"}, "[1]": {"tested_on": "MDR clinical isolates of A. baumannii (n = 210, 200 carbapenem-resistant)", "how_it_was_run": "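Cation-adjusted Mueller–Hinton broth was used with the broth microdilution method to set MICs against clinical isolates. A separate run on P. aeruginosa ATCC 27853 added 10% Survanta® (v/v, 2.5 mg/mL phospholipids) to gauge lung-surfactant binding of polymyxins.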"}, "A. baumannii AB5075 [2]": {"tested_on": "A. baumannii AB5075", "conditions": "AB5075", "how_it_was_run": "as §1"}, "A. baumannii FADDI-AB034": {"tested_on": "A. baumannii FADDI-AB034", "conditions": "FADDI-AB034", "how_it_was_run": "as §1"}, "A. baumannii ATCC 19606": {"tested_on": "A. baumannii ATCC 19606", "conditions": "ATCC 19606", "how_it_was_run": "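Susceptibility: microdilution MIC in CaMHB.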"}, "A. baumannii AB5075 [3]": {"tested_on": "A. baumannii AB5075", "assay": "In vitro passaging, emergence of resistance", "conditions": "for OD600: 8 ug/mL", "description": "Log-phase cultures (OD600 = 0.5, ~10^8 CFU/mL) of A. baumannii AB5075 were inoculated (1:10, v/v) in 200 μL fresh CaMHB (cation-adjusted Mueller–Hinton broth) containing 2, 8 and 16 μg/mL polymyxin B, colistin, F287, and F365 in a 96-well microplate with 4 biological replicates. The cultures were incubated at 37 °C for 12 h before the next dilution (1:10, v/v) with fresh CaMHB. Successive subculturing was conducted for 7 days."}, "A. baumannii AB5075 [4]": {"tested_on": "A. baumannii AB5075", "assay": "Transcriptomic analysis (RNA-Seq) of bacteria", "conditions": "H vs Cont, 1h; RNA-Seq A. baumannii AB5075", "description": "Mid-log phase A. baumannii AB5075 (~10^8 CFU/mL) in CaMHB was treated with colistin (2 and 8 μg/mL), F287, F319 or F365 (equimolar concentration to colistin) for 1 and 4 h. Total RNA was extracted using TRIzol Reagent (Invitrogen, USA) and RNeasy Mini Kit (Qiagen, Germany). Quality check of RNA samples was conducted with NanoDrop (Thermo Fisher Scientific, USA) and Agilent 2100 Bioanalyzer (Agilent Technologies, USA) for sequencing (150 bp paired-end) at Genewiz (Shanghai, China). Raw reads were aligned to A. baumannii AB5075 genome (GCF_000963815, https://www.ncbi.nlm.nih.gov/assembly/GCF_000963815.1/) using subread-aligner (subread 2.0.1) and summarized by featureCounts (subread 2.0.1). Principal component analysis (PCA) was conducted with mixOmics 6.14.1 in R. Differentially expressed genes were determined using limma 3.46.0 with a combination of fold change ≥ 2 and false discovery rate (FDR, by Benjamini–Hochberg algorithm) adjusted P-value ≤ 0.05 (n = 3). Enrichment analysis of gene differential expression in AB5075 was conducted using BioCyc (A. baumannii AB5075, version 25.5). UpSetR 1.4.0, ComplexHeatmap 2.6.2 and circlize 0.4.13 were used for data visualization. Raw data were deposited in Short Reads Archive (SRA) database under accession numbers SRR15235669-SRR15235725."}, "[5]": {"conditions": "MDR clinical isolates of (n = 210, 200 carbapenem-resistant)"}}, "note": "Values joined by “and” are separate entries in the source; they are usually repeats but may differ in a detail not shown here. Identical values can stand only once. Like-named read-outs stand apart in the source and are kept apart here. Residues, ends and D or L forms follow the SMILES beside them."}
{"smiles": "CCCCCCCC(=O)N[C@@H](CCN)C(=O)N[C@H](C(=O)N[C@@H](CN)C(=O)N[C@H]1CCNC(=O)[C@H]([C@@H](C)O)NC(=O)[C@H](CCN)NC(=O)[C@H](CCN)NC(=O)[C@H](CC)NC(=O)[C@@H](CC(C)C)NC(=O)[C@H](CCN)NC1=O)[C@@H](C)O", "note": "[Lipopeptide F287] (HELM PEPTIDE1{[CCCCCCCC(=O)[*:2]].[Dab].T.[NC[C@H](N[*:1])C(=O)[*:2]].[Dab].[Dab].[dL].[Abu].[Dab].[Dab].T}$PEPTIDE1,PEPTIDE1,5:R3-11:R2$$$V2.0)", "values": [{"measurement": "MIC A. baumannii FADDI-AB030", "setting": "A. baumannii FADDI-AB030", "value": 0.25, "unit": "µg/mL"}, {"measurement": "MIC50", "setting": "[1]; [5]", "value": 0.25, "unit": "µg/mL"}, {"measurement": "MIC90", "setting": "[1]; [5]", "value": 0.5, "unit": "µg/mL"}, {"measurement": "potency relative to polymyxin B", "setting": "[1]; MIC50/MIC90, A. baumannii panel", "value": "up to 8 fold"}, {"measurement": "Number of isolates", "setting": "[1]; isolates with MIC 0.05 µg/mL", "value": 0}, {"measurement": "Number of isolates", "setting": "[1]; isolates with MIC 0.125 µg/mL", "value": 15}, {"measurement": "Number of isolates", "setting": "[1]; isolates with MIC 0.25 µg/mL", "value": 126}, {"measurement": "Number of isolates", "setting": "[1]; isolates with MIC 0.5 µg/mL", "value": 54}, {"measurement": "Number of isolates", "setting": "[1]; isolates with MIC 1 µg/mL", "value": 8}, {"measurement": "Number of isolates", "setting": "[1]; isolates with MIC 2 µg/mL", "value": 2}, {"measurement": "Number of isolates", "setting": "[1]; isolates with MIC 4 µg/mL", "value": 0}, {"measurement": "Number of isolates", "setting": "[1]; isolates with MIC 8 µg/mL", "value": 1}, {"measurement": "Number of isolates", "setting": "[1]; isolates with MIC 16 µg/mL", "value": 0}, {"measurement": "Number of isolates", "setting": "[1]; isolates with MIC 32 µg/mL", "value": 0}, {"measurement": "Number of isolates", "setting": "[1]; isolates with MIC 64 µg/mL", "value": 1}, {"measurement": "Number of isolates", "setting": "[1]; isolates with MIC >64 µg/mL", "value": 0}, {"measurement": "MIC A. baumannii AB5075", "setting": "A. baumannii AB5075 [2]", "value": 0.5, "unit": "µg/mL"}, {"measurement": "MIC A. baumannii FADDI-AB034", "setting": "A. baumannii FADDI-AB034", "value": "<0.125", "unit": "µg/mL"}, {"measurement": "MIC A. baumannii ATCC 19606", "setting": "A. baumannii ATCC 19606", "value": 0.25, "unit": "µg/mL"}, {"measurement": "OD600", "setting": "A. baumannii AB5075 [3]; time 0 h, passage 0, replicates rep1-rep4, raw OD600 (blank OD600 0.125333)", "value": "0.15 and 0.135 and 0.14"}, {"measurement": "OD600", "setting": "A. baumannii AB5075 [3]; time 12 h, passage 1, replicates rep1-rep4, raw OD600 (blank OD600 0.114667)", "value": "0.134 and 0.126 and 0.13 and 0.129"}, {"measurement": "OD600", "setting": "A. baumannii AB5075 [3]; time 24 h, passage 2, replicates rep1-rep4, raw OD600 (blank OD600 0.0956667)", "value": "0.091 and 0.089 and 0.086"}, {"measurement": "OD600", "setting": "A. baumannii AB5075 [3]; time 36 h, passage 3, replicates rep1-rep4, raw OD600 (blank OD600 0.088)", "value": "0.088 and 0.089 and 0.095"}, {"measurement": "OD600", "setting": "A. baumannii AB5075 [3]; time 48 h, passage 4, replicates rep1-rep4, raw OD600 (blank OD600 0.104667)", "value": "0.095 and 0.092 and 0.093 and 0.111"}, {"measurement": "OD600", "setting": "A. baumannii AB5075 [3]; time 60 h, passage 5, replicates rep1-rep4, raw OD600 (blank OD600 0.122333)", "value": "0.105 and 0.107 and 0.117"}, {"measurement": "OD600", "setting": "A. baumannii AB5075 [3]; time 72 h, passage 6, replicates rep1-rep4, raw OD600 (blank OD600 0.095)", "value": "0.097 and 0.09 and 0.087"}, {"measurement": "OD600", "setting": "A. baumannii AB5075 [3]; time 84 h, passage 7, replicates rep1-rep4, raw OD600 (blank OD600 0.091)", "value": "0.094 and 0.097 and 0.099 and 0.113"}, {"measurement": "OD600", "setting": "A. baumannii AB5075 [3]; time 96 h, passage 8, replicates rep1-rep4, raw OD600 (blank OD600 0.0953333)", "value": "0.111 and 0.113 and 0.11 and 0.117"}, {"measurement": "OD600", "setting": "A. baumannii AB5075 [3]; time 108 h, passage 9, replicates rep1-rep4, raw OD600 (blank OD600 0.100667)", "value": "0.115 and 0.107 and 0.116"}, {"measurement": "OD600", "setting": "A. baumannii AB5075 [3]; time 120 h, passage 10, replicates rep1-rep4, raw OD600 (blank OD600 0.0983333)", "value": "0.108 and 0.113 and 0.118"}, {"measurement": "OD600", "setting": "A. baumannii AB5075 [3]; time 132 h, passage 11, replicates rep1-rep4, raw OD600 (blank OD600 0.0843333)", "value": "0.121 and 0.108 and 0.118 and 0.122"}, {"measurement": "OD600", "setting": "A. baumannii AB5075 [3]; time 144 h, passage 12, replicates rep1-rep4, raw OD600 (blank OD600 0.091)", "value": "0.116 and 0.114 and 0.12"}, {"measurement": "OD600", "setting": "A. baumannii AB5075 [3]; time 156 h, passage 13, replicates rep1-rep4, raw OD600 (blank OD600 0.129)", "value": "0.118 and 0.12 and 0.113 and 0.116"}, {"measurement": "OD600", "setting": "A. baumannii AB5075 [3]; time 168 h, passage 14, replicates rep1-rep4, raw OD600 (blank OD600 0.101)", "value": "0.096 and 0.095 and 0.092 and 0.117"}, {"measurement": "time to emergence of resistance", "setting": "A. baumannii AB5075 [3]; 4× MIC, 7-day passaging", "value": "≤ 3", "unit": "days"}, {"measurement": "growth over 7 days", "setting": "A. baumannii AB5075 [3]; 32× MIC", "value": "No growth"}, {"measurement": "logFC (Differential gene expression for all genes), Geneid ABUW_RS00005", "setting": "A. baumannii AB5075 [4]", "value": -0.2237}, {"measurement": "logFC (Differential gene expression for all genes), Geneid ABUW_RS00020", "setting": "A. baumannii AB5075 [4]", "value": 0.4813}, {"measurement": "logFC (Fold change), gene ABUW_RS00010", "setting": "A. baumannii AB5075 [4]", "value": 0.6329}, {"measurement": "logFC (Fold change), gene ABUW_RS00030", "setting": "A. baumannii AB5075 [4]", "value": -0.7589}, {"measurement": "logFC (Fold change), gene ABUW_RS00035", "setting": "A. baumannii AB5075 [4]", "value": 1.171}, {"measurement": "logFC (Fold change), gene recF (ABUW_RS00015)", "setting": "A. baumannii AB5075 [4]", "value": 0.0004857}]}
